Data reported in patent US20250381243A1, “HETEROCYCLES AND USES THEREOF” (Kumquat Biosciences Inc., priority 2022, published 2025).
Read-outs that look alike come from different tables or passages of the source.

Tested on: A549 cells
Test: Cell proliferation assay (CellTiter-Glo), cells with K-Ras G12S mutation
Type: cell-based
Conditions: Homo sapiens, read-out: Inhibition of A549 Cells (IC50)
Method in brief: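 A549 (K-Ras G12S) cells in RPMI-1640 with 10% heat-inactivated FBS, plated in standard or ultra-low-attachment 384-well format, treated next day with a dilution series (e.g., 10-point, 3-fold). Viability read by CellTiter-Glo luminescence about 6 days later; IC50 from four-parameter fit.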

An IC50 (≤500 nM) of at most 500 nM was found for `CCC1N(C(=O)n2cncn2)CC12CCN(c1nc(OC[C@@]34CCCN3C[C@H](F)C4)nc3c(F)c(-c4ccc(F)c5sc(N)c(C#N)c45)c(Cl)cc13)C2` (stereo partly drawn) [Compound 123, (4R)-2-amino-4-(6-chloro-4-(1-ethyl-2-(1H-1,2,4-triazole-1-carbonyl)-2,6-diazaspiro[3.4]octan-6-yl)-8-fluoro-2-(((2R,7aS)-2-fluorotetrahydro-1H-pyrrolizin-7a(5H)-yl)methoxy)quinazolin-7-yl)-7-fluorobenzo[b]thiophene-3-carbonitrile] in this work.
An IC50 (500 nM to 5 μM (mixed units)) of 500 to 5000 nM was found for `CN(C(=O)n1cncn1)C1CN(c2nc(OC[C@@]34CCCN3C[C@H](F)C4)nc3c(F)c(-c4ccc(F)c5sc(N)c(C#N)c45)c(Cl)cc23)CC12CC2` (stereo partly drawn) [Compound 140, N-(5-(7-(2-amino-3-cyano-7-fluorobenzo[b]thiophen-4-yl)-6-chloro-8-fluoro-2-(((2R,7aS)-2-fluorotetrahydro-1H-pyrrolizin-7a(5H)-yl)methoxy)quinazolin-4-yl)-5-azaspiro[2.4]heptan-7-yl)-N-methyl-1H-1,2,4-triazole-1-carboxamide] in this work.
An IC50 (≤500 nM) of at most 500 nM was found for `CN(C(=O)n1cncn1)C1CCN(c2nc(OC[C@@]34CCCN3C[C@H](F)C4)nc3c(F)c(-c4ccc(F)c5sc(N)c(C#N)c45)c(Cl)cc23)C1` (stereo partly drawn) [Compound 124, N-(1-(7-(2-amino-3-cyano-7-fluorobenzo[b]thiophen-4-yl)-6-chloro-8-fluoro-2-(((2R,7aS)-2-fluorotetrahydro-1H-pyrrolizin-7a(5H)-yl)methoxy)quinazolin-4-yl)pyrrolidin-3-yl)-N-methyl-1H-1,2,4-triazole-1-carboxamide] in this work.
An IC50 (≤500 nM) of at most 500 nM was found for `CN(C[C@@H]1CN(C(=O)n2cnc(C(F)F)n2)[C@@H]1C1CCC1)c1nc(OC[C@@]23CCCN2C[C@H](F)C3)nc2c(F)c(-c3ccc(F)c4sc(N)c(C#N)c34)c(Cl)cc12` [Compound 236, 2-amino-4-(6-chloro-4-((((2R,3R)-2-cyclobutyl-1-(3-(difluoromethyl)-1H-1,2,4-triazole-1-carbonyl)azetidin-3-yl)methyl)(methyl)amino)-8-fluoro-2-(((2R,7aS)-2-fluorotetrahydro-1H-pyrrolizin-7a(5H)-yl)methoxy)quinazolin-7-yl)-7-fluorobenzo[b]thiophene-3-carbonitrile] in this work.
An IC50 (500 nM to 5 μM (mixed units)) of 500 to 5000 nM was found for `C[C@H]1CC[C@]2(CN(C(=O)n3cnc(C#N)n3)[C@@H]2C2(C)CC2)CN1c1nc(OC[C@@]23CCCN2C[C@H](F)C3)nc2c(F)c(-c3ccc(F)c4sc(N)c(C#N)c34)c(Cl)cc12` [Compound 232, 1-((1R,4R,7S)-6-(7-(2-amino-3-cyano-7-fluorobenzo[b]thiophen-4-yl)-6-chloro-8-fluoro-2-(((2R,7aS)-2-fluorotetrahydro-1H-pyrrolizin-7a(5H)-yl)methoxy)quinazolin-4-yl)-7-methyl-1-(1-methylcyclopropyl)-2,6-diazaspiro[3.5]nonane-2-carbonyl)-1H-1,2,4-triazole-3-carbonitrile] in this work.
An IC50 (≤500 nM) of at most 500 nM was found for `COCC1([C@H]2N(C(=O)n3cnc(F)n3)C[C@]23CCCCN(c2nc(OC[C@@]45CCCN4C[C@H](F)C5)nc4c(F)c(-c5ccc(F)c6sc(N)c(C#N)c56)c(Cl)cc24)C3)CC1` [Compound 219, 2-amino-4-(6-chloro-8-fluoro-4-((1S,4R)-2-(3-fluoro-1H-1,2,4-triazole-1-carbonyl)-1-(1-(methoxymethyl)cyclopropyl)-2,6-diazaspiro[3.6]decan-6-yl)-2-(((2R,7aS)-2-fluorotetrahydro-1H-pyrrolizin-7a(5H)-yl)methoxy)quinazolin-7-yl)-7-fluorobenzo[b]thiophene-3-carbonitrile] in this work.
An IC50 (≤500 nM) of at most 500 nM was found for `CC(C)[C@H]1N(C(=O)n2cnc(Cl)n2)C[C@@]1(C)CN(C)c1nc(OC[C@@]23CCCN2C[C@H](F)C3)nc2c(F)c(-c3ccc(F)c4sc(N)c(C#N)c34)c(Cl)cc12` [Compound 210, 2-amino-4-(6-chloro-4-((((2R,3R)-1-(3-chloro-1H-1,2,4-triazole-1-carbonyl)-2-isopropyl-3-methylazetidin-3-yl)methyl)(methyl)amino)-8-fluoro-2-(((2R,7aS)-2-fluorotetrahydro-1H-pyrrolizin-7a(5H)-yl)methoxy)quinazolin-7-yl)-7-fluorobenzo[b]thiophene-3-carbonitrile] in this work.
An IC50 (≤500 nM) of at most 500 nM was found for `C[C@H]1CC[C@]2(CN(C(=O)n3cnc(F)n3)[C@@H]2C2(C)CC2)CN1c1nc(OC[C@]23CCCN2CC(=C(F)F)C3)nc2c(F)c(-c3ccc(F)c4sc(N)c(C#N)c34)c(Cl)cc12` [Compound 223, 2-amino-4-(6-chloro-2-(((R)-2-(difluoromethylene)tetrahydro-1H-pyrrolizin-7a(5H)-yl)methoxy)-8-fluoro-4-((1R,4R,7S)-2-(3-fluoro-1H-1,2,4-triazole-1-carbonyl)-7-methyl-1-(1-methylcyclopropyl)-2,6-diazaspiro[3.5]nonan-6-yl)quinazolin-7-yl)-7-fluorobenzo[b]thiophene-3-carbonitrile] in this work.
